Data from PubChem BioAssay (NCI).
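96-well plates; 48 h exposure; 5 concentrations. Endpoints by linear interpolation between flanking doses. Not reached: highest tested concentration assigned. The concentration for 50% growth inhibition is given as GI50. TGI: concentration producing complete growth inhibition.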

What was measured:
Assay in all cases: NCI tumour cell line growth inhibition, 48 h
HL-60(TB) leukemia = system: HL-60(TB) leukemia
SK-OV-3 ovarian = system: SK-OV-3 ovarian
SF-268 CNS = system: SF-268 CNS
COLO 205 colon = system: COLO 205 colon
HCT-116 colon = system: HCT-116 colon
K-562 leukemia = system: K-562 leukemia
HT29 colon = system: HT29 colon
CAKI-1 renal = system: CAKI-1 renal
DU-145 prostate = system: DU-145 prostate
EKVX NSCLC = system: EKVX NSCLC

What does the source list for Nc1nc(Nc2ccc3c(c2)CCC(N2CCCC2)CC3)nn1-c1cc2c(nn1)-c1ccccc1CCC2 (stereo unspecified)?
GI50 (HL-60(TB) leukemia): 1.01 µM; TGI (HL-60(TB) leukemia): 2.75 µM; GI50 (SK-OV-3 ovarian): 0.895 µM; TGI (SK-OV-3 ovarian): 2.22 µM; GI50 (SF-268 CNS): 1.25 µM; TGI (SF-268 CNS): 3.07 µM; GI50 (COLO 205 colon): 1.56 µM; TGI (COLO 205 colon): 3.11 µM; GI50 (HCT-116 colon): 0.754 µM; TGI (HCT-116 colon): 2.02 µM; GI50 (K-562 leukemia): 0.701 µM; TGI (K-562 leukemia): 2.48 µM; GI50 (HT29 colon): 0.667 µM; TGI (HT29 colon): 2.6 µM; GI50 (CAKI-1 renal): 0.531 µM; TGI (CAKI-1 renal): 2.05 µM; GI50 (DU-145 prostate): 1.04 µM; TGI (DU-145 prostate): 2.36 µM

Which results are given for CN(C)CCNC(=O)c1cccc2c1nc(-c1ccccn1)c1ccccc12?
TGI (HL-60(TB) leukemia): 34.8 µM; TGI (SK-OV-3 ovarian): 37.3 µM; TGI (EKVX NSCLC): 65.2 µM; TGI (SF-268 CNS): 61.6 µM; TGI (COLO 205 colon): 24.8 µM; TGI (HCT-116 colon): 23 µM; TGI (K-562 leukemia): 48.8 µM; TGI (HT29 colon): 39.9 µM; TGI (CAKI-1 renal): 61.9 µM

For COP1(=S)OCC2CCC[C@@H]2O1 (stereo partly specified), which TGI (HL-60(TB) leukemia) is on record?
Its TGI is > 100 µM.

And the TGI (SF-268 CNS)?
The TGI was > 100 µM.

And the TGI (COLO 205 colon)?
Its TGI is > 100 µM.

And the TGI (HCT-116 colon)?
Its TGI is > 100 µM.

What about the TGI (K-562 leukemia) of the same compound?
The TGI was > 100 µM.

And the TGI (HT29 colon)?
Its TGI is > 100 µM.

What about the TGI (CAKI-1 renal) of the same compound?
Its TGI is > 100 µM.

What about the TGI (DU-145 prostate) of the same compound?
Its TGI is > 100 µM.

For COc1cccc(C2C(C#N)=C(N)Oc3cc(OC)ccc32)c1 (stereo unspecified), which GI50 (HL-60(TB) leukemia) is on record?
The GI50 was 0.0263 µM.

And the TGI (HL-60(TB) leukemia)?
Its TGI is 0.077 µM.

What about the GI50 (SK-OV-3 ovarian) of the same compound?
The GI50 was 0.0478 µM.

And the GI50 (SF-268 CNS)?
Its GI50 is 0.0762 µM.

And the TGI (SF-268 CNS)?
The TGI was > 82.3 µM.

What about the GI50 (COLO 205 colon) of the same compound?
Its GI50 is 0.0464 µM.

And the TGI (COLO 205 colon)?
The TGI was 0.529 µM.

And the GI50 (HCT-116 colon)?
The GI50 was 0.0479 µM.

And the TGI (HCT-116 colon)?
Its TGI is 12.4 µM.

What about the GI50 (K-562 leukemia) of the same compound?
The GI50 was 0.0203 µM.

What about the TGI (K-562 leukemia) of the same compound?
Its TGI is > 100 µM.

And the GI50 (HT29 colon)?
Its GI50 is 0.0416 µM.

And the TGI (HT29 colon)?
The TGI was 4.96 µM.

What about the GI50 (CAKI-1 renal) of the same compound?
The GI50 was 0.0493 µM.

And the TGI (CAKI-1 renal)?
Its TGI is > 100 µM.

What about the GI50 (DU-145 prostate) of the same compound?
The GI50 was 0.0347 µM.

What about the TGI (DU-145 prostate) of the same compound?
The TGI was 1.55 µM.

Which TGI (HL-60(TB) leukemia) does the source give for N#Cc1ccc2oc3ccc(C#N)cc3c(=O)c2c1 here?
The TGI was 38.5 µM.

And the TGI (SF-268 CNS)?
The TGI was 69.1 µM.

What about the TGI (COLO 205 colon) of the same compound?
The TGI was > 100 µM.

And the TGI (HCT-116 colon)?
The TGI was > 100 µM.

And the TGI (K-562 leukemia)?
The TGI was > 100 µM.

What about the TGI (HT29 colon) of the same compound?
Its TGI is 40.1 µM.

And the TGI (CAKI-1 renal)?
Its TGI is > 100 µM.

And the TGI (DU-145 prostate)?
The TGI was > 100 µM.

Which results are given for COc1ccc(S(=O)(=O)N/N=C(\C)CN2C(=O)c3ccccc3C2=O)cc1?
TGI (HL-60(TB) leukemia): > 100 µM; TGI (SK-OV-3 ovarian): > 100 µM; TGI (EKVX NSCLC): > 100 µM; TGI (SF-268 CNS): > 100 µM; TGI (COLO 205 colon): > 100 µM; TGI (HCT-116 colon): > 100 µM; TGI (K-562 leukemia): > 100 µM; TGI (HT29 colon): > 100 µM; TGI (CAKI-1 renal): > 100 µM

What does the source list for CC1(CO)C(=O)OC12CCCCC2 (stereo unspecified)?
TGI (HL-60(TB) leukemia): > 100 µM; TGI (SK-OV-3 ovarian): > 100 µM; TGI (EKVX NSCLC): > 100 µM; TGI (SF-268 CNS): > 100 µM; TGI (COLO 205 colon): > 100 µM; TGI (HCT-116 colon): > 100 µM; TGI (K-562 leukemia): > 100 µM; TGI (HT29 colon): > 100 µM; TGI (CAKI-1 renal): > 100 µM

COc1ccc(CCC2NCCc3cc(OC)c(OC)cc32)cc1 (stereo unspecified) was tested. Which TGI (EKVX NSCLC) did it give?
The TGI was > 100 µM.

What about the TGI (SF-268 CNS) of the same compound?
Its TGI is > 100 µM.

What about the TGI (HCT-116 colon) of the same compound?
The TGI was > 100 µM.

What about the TGI (K-562 leukemia) of the same compound?
The TGI was > 100 µM.

What about the TGI (HT29 colon) of the same compound?
The TGI was > 100 µM.

And the TGI (CAKI-1 renal)?
The TGI was > 100 µM.

How did the TGI (HL-60(TB) leukemia) turn out when Cc1nc2ccc(NCCN(C)C)c3c(=O)c4cc(O)ccc4n1c23 was run?
The TGI was 3.1 µM.

What about the TGI (SK-OV-3 ovarian) of the same compound?
Its TGI is 8.98 µM.

And the TGI (SF-268 CNS)?
The TGI was 5.43 µM.

What about the TGI (COLO 205 colon) of the same compound?
The TGI was 2.3 µM.

What about the TGI (HCT-116 colon) of the same compound?
Its TGI is 2.22 µM.

And the TGI (K-562 leukemia)?
Its TGI is 4.25 µM.

And the TGI (HT29 colon)?
Its TGI is 2.4 µM.

What about the TGI (CAKI-1 renal) of the same compound?
Its TGI is 3.94 µM.

What about the TGI (DU-145 prostate) of the same compound?
The TGI was 4.93 µM.

How did the GI50 (HL-60(TB) leukemia) turn out when CC(=O)OC1=C2C(CC3C4CC=C5CC(OC(C)=O)CCC5(C)C4CCC23C)C2C(=O)N(Cc3ccccc3)C(=O)C2C1 (stereo unspecified) was run?
The GI50 was 3.65 µM.

What about the TGI (HL-60(TB) leukemia) of the same compound?
The TGI was 17.8 µM.

And the GI50 (SK-OV-3 ovarian)?
The GI50 was 17.7 µM.

And the TGI (SK-OV-3 ovarian)?
Its TGI is > 100 µM.

What about the GI50 (SF-268 CNS) of the same compound?
Its GI50 is 19.8 µM.

And the TGI (SF-268 CNS)?
The TGI was > 100 µM.

And the GI50 (COLO 205 colon)?
Its GI50 is 8.12 µM.

What about the TGI (COLO 205 colon) of the same compound?
The TGI was 25 µM.

And the GI50 (HCT-116 colon)?
Its GI50 is 3.82 µM.

And the TGI (HCT-116 colon)?
Its TGI is 17.2 µM.

And the GI50 (K-562 leukemia)?
The GI50 was 4.33 µM.

And the TGI (K-562 leukemia)?
The TGI was > 100 µM.

What about the GI50 (HT29 colon) of the same compound?
The GI50 was 3.9 µM.

What about the TGI (HT29 colon) of the same compound?
The TGI was 24 µM.

And the GI50 (CAKI-1 renal)?
The GI50 was 4.65 µM.

What about the TGI (CAKI-1 renal) of the same compound?
The TGI was > 100 µM.

What about the GI50 (DU-145 prostate) of the same compound?
The GI50 was 32.8 µM.

And the TGI (DU-145 prostate)?
Its TGI is > 100 µM.
